In PMC4859520, “Binding Properties of General Odorant Binding Proteins from the Oriental Fruit Moth, Grapholita molesta (Busck) (Lepidoptera: Tortricidae)” (PLoS ONE, 2016):
Read-outs that look alike come from different tables or passages of the source.

Experiments:
GmolGOBP1 = GmolGOBP1 (Grapholita molesta, UniProt H9XTU5); assay: Fluorescence competitive binding assay with probe 1-NPN, rGmolGOBP1; conditions: for binding to rGmolGOBP1 (in words): competitive binding with 1-NPN
Procedure: (§1) Fluorescence binding assays were performed on a Hitachi (Tokyo, Japan) F-4500 fluorescence spectrophotometer with a 1 cm light path fluorimeter quartz cuvette. Both of the slit widths for excitation and emission were 10 nm. 1-N-phenyl-naphthylamine (1-NPN) was dissolved in HPLC purity grade methanol to yield a 1 mM stock solution. […] The probes were excited at 337 nm and emission spectra were recorded between 370 and 550 nm. […] Binding data were collected in three independent measurements.
(§2) Dissociation constants of the complex GmolGOBPs/1-NPN (K1-NPN) were calculated by a nonlinear regression binding curve, using Prism 5.0 (GraphPad Software Inc.).

GmolGOBP2 = GmolGOBP2 (Grapholita molesta, UniProt H9XTU6); assay: Fluorescence competitive binding assay with probe 1-NPN, rGmolGOBP2 wild-type
Procedure: as §1, §2

rGmolPBP1 = biological target: rGmolPBP1; parameters: method as in earlier work; conditions: cited from earlier work
rGmolOBP8 = biological target: rGmolOBP8; parameters: method as in PMID 26609640; conditions: cited from earlier work
rGmolOBP11 = biological target: rGmolOBP11; parameters: method as in PMID 26609640; conditions: cited from earlier work
GmolGOBP2 T9A = GmolGOBP2 T9A (Grapholita molesta, UniProt H9XTU6, T29A); assay: Fluorescence competitive binding assay, GmolGOBP2 mutant T9A
Procedure: (§3) Fluorescence binding assays were performed on a Hitachi (Tokyo, Japan) F-4500 fluorescence spectrophotometer with a 1 cm light path fluorimeter quartz cuvette. Both of the slit widths for excitation and emission were 10 nm. 1-N-phenyl-naphthylamine (1-NPN) was dissolved in HPLC purity grade methanol to yield a 1 mM stock solution. A 2 μM solution of the protein in 20 mM Tris-HCl, pH 7.4, was titrated with aliquots of 1 mM 1-NPN to final concentrations of 1, 2, 4, 6, 8, 10, 12, 14, 16, 18, and 22 μM. The probes were excited at 337 nm and emission spectra were recorded between 370 and 550 nm. All ligands (S1 File) used in competitive binding assays were also dissolved in HPLC purity grade methanol. The final concentrations of sex pheromones were between 1 and 22 μM for each rGmolGOBP protein, whereas the concentrations of 30 synthetic plant volatiles to rGmolGOBP1 and 2 were up to 64 and 100 μM, respectively. Binding data were collected in three independent measurements.
(§4) Dissociation constants of the complex GmolGOBPs/1-NPN (K1-NPN) were calculated by a nonlinear regression binding curve, using Prism 5.0 (GraphPad Software Inc.). The inhibition constants (Ki) of the competitors were computed from the corresponding IC50 values using the equation: Ki = [IC50]/(1+[1−NPN]/K1−NPN), where [1−NPN] is the free concentration of 1−NPN and K1-NPN is the dissociation constant of the complex protein/1-NPN.
(§5) Gene-specific primers were designed in accordance with the recommended protocols of the TaKaRa MutanBEST Kit (TaKaRa, Shiga, Japan). The GmolGOBP2 coding sequence was mutated to create the three mutants GmolGOBP2 T9A (threonine to alanine at position 9), GmolGOBP2 V111A (valine to alanine at position 111), and GmolGOBP2 V114A (valine to alanine at position 114). Mutations were obtained using the TaKaRa MutanBEST Kit with Pyrobest DNA polymerase with the pMD19-T/GmolGOBP2 plasmid DNA as template. All plasmids containing mutations were verified by DNA sequencing. Mutated protein expression and enrichment were performed as described above for rGmolGOBP1 and 2. After determining concentrations, purified mutants were applied to verify the binding affinities with dodecanol and its analogs in fluorescence ligand-binding assays.

GmolGOBP2 V111A = GmolGOBP2 V111A (Grapholita molesta, UniProt H9XTU6, V131A); assay: Fluorescence competitive binding assay, GmolGOBP2 mutant V111A; conditions: for affinity of V111A mutant versus wild-type (in words): V111A versus wild-type rGmolGOBP2
Procedure: as §3, §4, §5

GmolGOBP2 V114A = GmolGOBP2 V114A (Grapholita molesta, UniProt H9XTU6, V134A); assay: Fluorescence competitive binding assay, GmolGOBP2 mutant V114A; conditions: for affinity of V114A mutant versus wild-type (in words): V114A versus wild-type rGmolGOBP2
Procedure: as §3, §4, §5

[1] = protein and 1-NPN 2 μM, pH 7.4, calculated from IC50, read-out: GmolGOBP1 Ki
[2] = protein and 1-NPN 2 μM, pH 7.4, displacing half of initial fluorescence, read-out: GmolGOBP1 IC50
[3] = protein and 1-NPN 2 μM, pH 7.4, calculated from IC50, read-out: GmolGOBP2 Ki
[4] = protein and 1-NPN 2 μM, pH 7.4, displacing half of initial fluorescence, read-out: GmolGOBP2 IC50
[5] = T9A versus wild-type rGmolGOBP2

Chain of GmolGOBP1 (H9XTU5 entry or part of it): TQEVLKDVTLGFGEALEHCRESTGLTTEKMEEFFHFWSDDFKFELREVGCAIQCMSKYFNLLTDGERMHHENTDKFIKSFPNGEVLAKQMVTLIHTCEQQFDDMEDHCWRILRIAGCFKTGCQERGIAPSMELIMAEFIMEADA
Chain of GmolGOBP2 (H9XTU6 entry or part of it): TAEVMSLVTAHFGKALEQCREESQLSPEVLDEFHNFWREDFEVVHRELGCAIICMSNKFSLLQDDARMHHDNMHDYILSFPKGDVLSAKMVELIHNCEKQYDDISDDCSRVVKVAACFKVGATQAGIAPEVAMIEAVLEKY
Chain of GmolGOBP2 T9A (H9XTU6 entry or part of it T29A): as the sequence (H9XTU6 entry or part of it) above, with T9A counted along it
Chain of GmolGOBP2 V114A (H9XTU6 entry or part of it V134A): as the sequence (H9XTU6 entry or part of it) above, with V114A counted along it
Chain of GmolGOBP2 V111A (H9XTU6 entry or part of it V131A): as the sequence (H9XTU6 entry or part of it) above, with V111A counted along it

Compound `CCCCCCC=O` [Heptanal] has a Ki (GmolGOBP1; [1]) of 34.2 µM and an IC50 (GmolGOBP1; [2]) of 37.1 ± 4.5 µM.

With `CCCCCCCCCCCCCCCC` [Hexadecane] the “binding to rGmolGOBP1 (in words)” value (GmolGOBP1) was “very weak binding affinities”.

`CCCCCC=O` [Hexanal] gave an IC50 (GmolGOBP1) of 33.6 ± 2 µM and a Ki (GmolGOBP1) of 30.9 µM.

Work on `CCCCCCOC(C)=O` [Hexyl acetate] yielded a Ki (GmolGOBP1; [1]) of 27.5 µM, an IC50 (GmolGOBP1; [2]) of 29.9 ± 4.11 µM and a Ki (GmolGOBP2; [3]) of 81.6 µM. It also gave an IC50 (GmolGOBP2; [4]) of 98.8 ± 3.63 µM.

Compound `CC(=O)OCCC(C)C` [Isoamyl acetate] has a Ki (GmolGOBP1; [1]) of 26.6 µM and an IC50 (GmolGOBP1; [2]) of 29 ± 2.18 µM.

With `CC/C=C\CC1C(=O)CCC1CC(=O)OC` (centres unmarked) [Methyl jasmonate] the Ki (GmolGOBP1; [1]) was 35.8 µM, the IC50 (GmolGOBP1; [2]) was 38.9 ± 1.56 µM and the Ki (GmolGOBP2; [3]) was 60.8 µM. It also gave an IC50 (GmolGOBP2; [4]) of 73.7 ± 5 µM.

Work on `COC(=O)c1ccccc1O` [Methyl salicylate] yielded an IC50 (GmolGOBP1) of 49.8 ± 6.48 µM, a Ki (GmolGOBP1) of 45.8 µM and an IC50 (GmolGOBP2) of 93.7 ± 5.55 µM. The Ki (GmolGOBP2) was 77.3 µM.

Compound `CCCCCCCCC=O` [Nonanal] has a Ki (GmolGOBP1; [1]) of 54.4 µM, an IC50 (GmolGOBP1; [2]) of 59.2 ± 8.7 µM and a Ki (GmolGOBP2; [3]) of 75.3 µM. It also gave an IC50 (GmolGOBP2; [4]) of 91.2 ± 5.49 µM.

In the case of `CCCCCCCCCCCCCCCCCC` [Octadecane], the “binding to rGmolGOBP1 (in words)” value (GmolGOBP1) is reported as “very weak binding affinities”.

For `CCCCCCCC=O` [Octanal], the Ki (GmolGOBP1; [1]) was 21.5 µM, the IC50 (GmolGOBP1; [2]) was 23.3 ± 1.43 µM and the Ki (GmolGOBP2; [3]) was 66.4 µM. The IC50 (GmolGOBP2; [4]) was 80.4 ± 3.79 µM.

In the case of `CCCCCCCCCCCCCCC` [Pentadecane], the Ki (GmolGOBP1; [1]) is reported as 11.4 µM and the IC50 (GmolGOBP1; [2]) is reported as 12.4 ± 1.87 µM.

In the case of `CCCCCCCCCCCCCC` [Tetradecane], the Ki (GmolGOBP1; [1]) is reported as 8.47 µM and the IC50 (GmolGOBP1; [2]) is reported as 9.21 ± 1.31 µM.

For `CCC/C=C\CCCCCCCOC(C)=O` [Z8-12:AC, (Z)-8-dodecenyl acetate], the “binding to rGmolGOBP1 (in words)” value (GmolGOBP1) was “did not bind”, the Ki (GmolGOBP2; [3]) was 14.4 µM and the IC50 (GmolGOBP2; [4]) was 17.4 ± 0.87 µM. For the same compound, the Ki (rGmolPBP1) was 1.1 µM.

`CCC/C=C\CCCCCCCO` [Z8-12:OH, (Z)-8-dodecenyl alcohol] gave a Ki (GmolGOBP1; [1]) of 3.14 µM, an IC50 (GmolGOBP1; [2]) of 3.85 ± 0.41 µM and a Ki (GmolGOBP2; [3]) of 12.8 µM. The IC50 (GmolGOBP2; [4]) was 15.5 ± 0.52 µM, the Ki (rGmolOBP8) was 5.59 µM and the Ki (rGmolOBP11) was 3.05 µM.

In the case of `CCCCCCCCCCO` [decanol], the Ki (GmolGOBP2) is reported as 15.3 ± 1 µM, the Ki (GmolGOBP2 T9A) is reported as 39.6 ± 2.34 µM and the “decrease in affinity of T9A mutant” value (GmolGOBP2 T9A; [5]) is reported as 3-5 fold. For the same compound, the Ki (GmolGOBP2 V111A) was 11.3 ± 0.17 µM, the “affinity of V111A mutant versus wild-type (in words)” value (GmolGOBP2 V111A) was “no differences” and the Ki (GmolGOBP2 V114A) was 15.6 ± 0.43 µM. The “affinity of V114A mutant versus wild-type (in words)” value (GmolGOBP2 V114A) was “no differences”.

In the case of `CCCCCCCCCCCCCCCCO` [hexadecanol], the Ki (GmolGOBP2; rGmolGOBP2 wild-type, protein and 1-NPN 2 μM, ligand 0 to 14 μM, read-out: Ki Wild-Type) is reported as 1.35 ± 0.45 µM, the Ki (GmolGOBP2 T9A) is reported as 22.4 ± 3.03 µM and the “affinity of T9A mutant versus wild-type (in words)” value (GmolGOBP2 T9A; [5]) is reported as “drastical decline in affinity”. For the same compound, the Ki (GmolGOBP2 V111A) was 1.36 ± 0.13 µM, the “affinity of V111A mutant versus wild-type (in words)” value (GmolGOBP2 V111A) was “no differences” and the Ki (GmolGOBP2 V114A) was 1.99 ± 0.74 µM. The “affinity of V114A mutant versus wild-type (in words)” value (GmolGOBP2 V114A) was “no differences”.

For `CCCCCCCCCCCCCCO` [tetradecanol], the Ki (GmolGOBP2) was 0.36 ± 0.05 µM, the “affinity of T9A mutant versus wild-type (in words)” value (GmolGOBP2 T9A; [5]) was “drastical decline in affinity” and the Ki (GmolGOBP2 T9A; mutant T9A, protein and 1-NPN 2 μM, ligand 0 to 14 μM, read-out: Ki T9A) was 5.75 ± 0.86 µM. For the same compound, the “affinity of V111A mutant versus wild-type (in words)” value (GmolGOBP2 V111A) was “no differences”, the Ki (GmolGOBP2 V111A; mutant V111A, protein and 1-NPN 2 μM, ligand 0 to 14 μM, read-out: Ki V111A) was 0.3 ± 0.16 µM and the “affinity of V114A mutant versus wild-type (in words)” value (GmolGOBP2 V114A) was “no differences”. The Ki (GmolGOBP2 V114A; mutant V114A, protein and 1-NPN 2 μM, ligand 0 to 14 μM, read-out: Ki V114A) was 0.37 ± 0.14 µM.

Work on `C=C/C(C)=C/CCC(=C)C` [α-Ocimene] yielded a Ki (GmolGOBP1; [1]) of 12.4 µM, an IC50 (GmolGOBP1; [2]) of 13.5 ± 0.79 µM and a Ki (GmolGOBP2; [3]) of 44.1 µM. The IC50 (GmolGOBP2; [4]) was 53.4 ± 4.91 µM.

`CC1=CCC2CC1C2(C)C` (stereo not drawn) [α-Pinene] showed an IC50 (GmolGOBP1) of 16.1 ± 1.22 µM, a Ki (GmolGOBP1) of 14.8 µM and an IC50 (GmolGOBP2) of 51.7 ± 7.11 µM. It also gave a Ki (GmolGOBP2) of 42.6 µM.
